Data published in patent publication US20240132431A1, “METHOD FOR ALKYLATING ACIDIC FUNCTIONAL GROUP” (Chugai Seiyaku Kabushiki Kaisha, priority 2021, published 2024).

Molecular target: T1, Bcl-2 protein (Recombinant Human Bcl-2 Protein) (Homo sapiens, UniProt P10415)
T1 construct: purchased Novus NBP2-34889
Test: Binding evaluation of mixture library compounds to Bcl-2 using AS-MS (affinity selection mass spectrometry)
Conditions: AS-MS on the mixture of 1200 library compounds, ASMS Ratio(%)=(A−C)/B×100; for ASMS ratio (%) n = 1: replicate n = 1; for ASMS ratio (%) n = 2: replicate n = 2
Procedure, shortened: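 Affinity selection MS: Bcl-2 20 μM + 1200-cpd mixture, […]/cpd, Tris pH 7.4 buffer w/ Tween-20, DTT; 1 h 23° C dark; P-2 spin SEC; MeCN/MeOH extraction; RP LC/MS. ASMS Ratio(%) = (A−C)/B×100.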

T1 sequence (P10415 whole entry): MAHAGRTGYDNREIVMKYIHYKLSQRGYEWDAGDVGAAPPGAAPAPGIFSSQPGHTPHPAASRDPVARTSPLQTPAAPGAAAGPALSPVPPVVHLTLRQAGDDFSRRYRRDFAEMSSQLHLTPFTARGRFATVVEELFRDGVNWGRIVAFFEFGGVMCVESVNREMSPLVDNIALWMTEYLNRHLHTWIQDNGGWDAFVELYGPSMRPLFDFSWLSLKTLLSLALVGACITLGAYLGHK

SMILES: CCOc1cccc(-c2ccc(CN3CCN(c4ccc(C(=O)Nc5ccc(OC)cc5)cc4)CC3)c(OC)c2)c1 [B1O053-01, 4-[4-[[4-(3-Ethoxyphenyl)-2-methoxyphenyl]methyl]piperazin-1-yl]-N-(4-methoxyphenyl)benzamide]
- ASMS ratio (%) n = 1: 2.2%
- ASMS ratio (%) n = 2: −1.0%

SMILES: CCOc1cncc(-c2ccc(CN3CCN(c4ccc(C(=O)Nc5ccc(OC)cc5)cc4)CC3)c(OC)c2)c1 [B1O054-01, 4-[4-[[4-(5-Ethoxypyridin-3-yl)-2-methoxyphenyl]methyl]piperazin-1-yl]-N-(4-methoxyphenyl)benzamide]
- ASMS ratio (%) n = 1: 2.6%
- ASMS ratio (%) n = 2: 3.2%

SMILES: CCOc1cccc(-c2cc(CN3CCN(c4ccc(C(=O)Nc5ccc(OC)cc5)cc4)CC3)cc(OCC)c2)c1 [B1O055-01]
- ASMS ratio (%) n = 1: 3.0%
- ASMS ratio (%) n = 2: −4.2%

SMILES: CCOc1cncc(-c2cc(CN3CCN(c4ccc(C(=O)Nc5ccc(OC)cc5)cc4)CC3)cc(OCC)c2)c1 [B1O056-01, 4-[4-[[3-Ethoxy-5-(5-ethoxypyridin-3-yl)phenyl]methyl]piperazin-1-yl]-N-(4-methoxyphenyl)benzamide]
- ASMS ratio (%) n = 1: 6.7%
- ASMS ratio (%) n = 2: −0.9%

SMILES: CCOc1cccc(-c2cc(CN3CCN(c4ccc(C(=O)Nc5ccc(OC)cc5)cc4)CC3)cc(OC(C)C)c2)c1 [B1O057-01, 4-[4-[[3-(3-Ethoxyphenyl)-5-propan-2-yloxyphenyl]methyl]piperazin-1-yl]-N-(4-methoxyphenyl)benzamide]
- ASMS ratio (%) n = 1: 4.1%
- ASMS ratio (%) n = 2: −2.2%

SMILES: CCOc1cncc(-c2cc(CN3CCN(c4ccc(C(=O)Nc5ccc(OC)cc5)cc4)CC3)cc(OC(C)C)c2)c1 [B1O058-01]
- ASMS ratio (%) n = 1: −3.5%
- ASMS ratio (%) n = 2: 4.4%

SMILES: CCOc1cccc(-c2cc(OC)c(CN3CCN(c4ccc(C(=O)Nc5ccc(OC)cc5)cc4)CC3)c(OC)c2)c1 [B1O059-01, 4-[4-[[4-(3-Ethoxyphenyl)-2,6-dimethoxyphenyl]methyl]piperazin-1-yl]-N-(4-methoxyphenyl)benzamide]
- ASMS ratio (%) n = 1: 2.0%
- ASMS ratio (%) n = 2: −1.9%

SMILES: CCOc1cncc(-c2cc(OC)c(CN3CCN(c4ccc(C(=O)Nc5ccc(OC)cc5)cc4)CC3)c(OC)c2)c1 [B1O060-01, 4-[4-[[4-(5-Ethoxypyridin-3-yl)-2,6-dimethoxyphenyl]methyl]piperazin-1-yl]-N-(4-methoxyphenyl)benzamide]
- ASMS ratio (%) n = 1: 0.6%
- ASMS ratio (%) n = 2: −1.8%

SMILES: CCOc1cccc(-c2cc(CN3CCN(c4ccc(C(=O)Nc5ccc(OC)cc5)cc4)CC3)cc(C(F)(F)F)c2)c1 [B1O061-01, 4-[4-[[3-(3-Ethoxyphenyl)-5-(trifluoromethyl)phenyl]methyl]piperazin-1-yl]-N-(4-methoxyphenyl)benzamide]
- ASMS ratio (%) n = 1: 1.9%
- ASMS ratio (%) n = 2: −1.5%

SMILES: CCOc1cncc(-c2cc(CN3CCN(c4ccc(C(=O)Nc5ccc(OC)cc5)cc4)CC3)cc(C(F)(F)F)c2)c1 [B1O062-01, 4-[4-[[3-(5-Ethoxypyridin-3-yl)-5-(trifluoromethyl)phenyl]methyl]piperazin-1-yl]-N-(4-methoxyphenyl)benzamide]
- ASMS ratio (%) n = 1: 1.3%
- ASMS ratio (%) n = 2: 4.6%

SMILES: CCOc1cccc(-c2cc(CN3CCN(c4ccc(C(=O)Nc5ccc(OC)cc5)cc4)CC3)cc(OC(F)(F)F)c2)c1 [B1O063-01, 4-[4-[[3-(3-Ethoxyphenyl)-5-(trifluoromethoxy)phenyl]methyl]piperazin-1-yl]-N-(4-methoxyphenyl)benzamide]
- ASMS ratio (%) n = 1: 3.5%
- ASMS ratio (%) n = 2: −4.1%

SMILES: CCOc1cncc(-c2cc(CN3CCN(c4ccc(C(=O)Nc5ccc(OC)cc5)cc4)CC3)cc(OC(F)(F)F)c2)c1 [B1O064-01, 4-[4-[[3-(5-Ethoxypyridin-3-yl)-5-(trifluoromethoxy)phenyl]methyl]piperazin-1-yl]-N-(4-methoxyphenyl)benzamide]
- ASMS ratio (%) n = 1: 0.7%
- ASMS ratio (%) n = 2: −4.0%

SMILES: CCOc1cccc(-c2ccc(CN3CCN(c4ccc(C(=O)Nc5ccc(OC)cc5)cc4)CC3)c3ccccc23)c1 [B1O065-01, 4-[4-[[4-(3-Ethoxyphenyl)naphthalen-1-yl]methyl]piperazin-1-yl]-N-(4-methoxyphenyl)benzamide]
- ASMS ratio (%) n = 1: 7.5%
- ASMS ratio (%) n = 2: 0.8%

SMILES: CCOc1cncc(-c2ccc(CN3CCN(c4ccc(C(=O)Nc5ccc(OC)cc5)cc4)CC3)c3ccccc23)c1 [B1O066-01, 4-[4-[[4-(5-Ethoxypyridin-3-yl)naphthalen-1-yl]methyl]piperazin-1-yl]-N-(4-methoxyphenyl)benzamide]
- ASMS ratio (%) n = 1: 12.1%
- ASMS ratio (%) n = 2: 2.7%

SMILES: CCOc1cccc(-c2csc(CN3CCN(c4ccc(C(=O)Nc5ccc(OC)cc5)cc4)CC3)c2)c1 [B1O067-01]
- ASMS ratio (%) n = 1: 0.0%
- ASMS ratio (%) n = 2: 0.0%

SMILES: CCOc1cncc(-c2csc(CN3CCN(c4ccc(C(=O)Nc5ccc(OC)cc5)cc4)CC3)c2)c1 [B1O068-01, 4-[4-[[4-(5-Ethoxypyridin-3-yl)thiophen-2-yl]methyl]piperazin-1-yl]-N-(4-methoxyphenyl)benzamide]
- ASMS ratio (%) n = 1: 1.9%
- ASMS ratio (%) n = 2: −1.1%

SMILES: CCOc1cccc(C#Cc2ccccc2CN2CCN(c3ccc(C(=O)Nc4ccc(OC)cc4)cc3)CC2)c1 [B1O069-01, 4-[4-[[2-[2-(3-Ethoxyphenyl)ethynyl]phenyl]methyl]piperazin-1-yl]-N-(4-methoxyphenyl)benzamide]
- ASMS ratio (%) n = 1: 6.2%
- ASMS ratio (%) n = 2: −2.4%

SMILES: CCOc1cncc(C#Cc2ccccc2CN2CCN(c3ccc(C(=O)Nc4ccc(OC)cc4)cc3)CC2)c1 [B1O070-01]
- ASMS ratio (%) n = 1: 8.8%
- ASMS ratio (%) n = 2: 2.3%

SMILES: CCOc1cccc(-c2ccccc2CN2CCN(c3ccc(C(=O)Nc4ccc(OC)cc4)nn3)CC2)c1 [B1O071-01, 6-[4-[[2-(3-Ethoxyphenyl)phenyl]methyl]piperazin-1-yl]-N-(4-methoxyphenyl)pyridazine-3-carboxamide]
- ASMS ratio (%) n = 1: 2.9%
- ASMS ratio (%) n = 2: −1.1%

SMILES: CCOc1cncc(-c2ccccc2CN2CCN(c3ccc(C(=O)Nc4ccc(OC)cc4)nn3)CC2)c1 [B1O072-01, 6-[4-[[2-(5-Ethoxypyridin-3-yl)phenyl]methyl]piperazin-1-yl]-N-(4-methoxyphenyl)pyridazine-3-carboxamide]
- ASMS ratio (%) n = 1: 4.1%
- ASMS ratio (%) n = 2: 0.4%

SMILES: CCOc1cccc(-c2ccc(CN3CCN(c4ccc(C(=O)Nc5ccc(OC)cc5)nn4)CC3)cc2C)c1 [B1O073-01, 6-[4-[[4-(3-Ethoxyphenyl)-3-methylphenyl]methyl]piperazin-1-yl]-N-(4-methoxyphenyl)pyridazine-3-carboxamide]
- ASMS ratio (%) n = 1: 2.0%
- ASMS ratio (%) n = 2: 3.7%

SMILES: CCOc1cncc(-c2ccc(CN3CCN(c4ccc(C(=O)Nc5ccc(OC)cc5)nn4)CC3)cc2C)c1 [B1O074-01, 6-[4-[[4-(5-Ethoxypyridin-3-yl)-3-methylphenyl]methyl]piperazin-1-yl]-N-(4-methoxyphenyl)pyridazine-3-carboxamide]
- ASMS ratio (%) n = 1: 3.9%
- ASMS ratio (%) n = 2: −0.9%

SMILES: CCOc1cccc(-c2ccc(CN3CCN(c4ccc(C(=O)Nc5ccc(OC)cc5)nn4)CC3)c(CC)c2)c1 [B1O075-01, 6-[4-[[4-(3-Ethoxyphenyl)-2-ethylphenyl]methyl]piperazin-1-yl]-N-(4-methoxyphenyl)pyridazine-3-carboxamide]
- ASMS ratio (%) n = 1: 9.3%
- ASMS ratio (%) n = 2: 0.8%

SMILES: CCOc1cncc(-c2ccc(CN3CCN(c4ccc(C(=O)Nc5ccc(OC)cc5)nn4)CC3)c(CC)c2)c1 [B1O076-01, 6-[4-[[4-(5-Ethoxypyridin-3-yl)-2-ethylphenyl]methyl]piperazin-1-yl]-N-(4-methoxyphenyl)pyridazine-3-carboxamide]
- ASMS ratio (%) n = 1: 4.4%
- ASMS ratio (%) n = 2: 1.1%

SMILES: CCOc1cccc(-c2ccc(CN3CCN(c4ccc(C(=O)Nc5ccc(OC)cc5)nn4)CC3)cc2F)c1 [B1O077-01, 6-[4-[[4-(3-Ethoxyphenyl)-3-fluorophenyl]methyl]piperazin-1-yl]-N-(4-methoxyphenyl)pyridazine-3-carboxamide]
- ASMS ratio (%) n = 1: 4.1%
- ASMS ratio (%) n = 2: 0.4%

SMILES: CCOc1cncc(-c2ccc(CN3CCN(c4ccc(C(=O)Nc5ccc(OC)cc5)nn4)CC3)cc2F)c1 [B1O078-01]
- ASMS ratio (%) n = 1: 4.8%
- ASMS ratio (%) n = 2: 1.8%

SMILES: CCOc1cccc(-c2ccc(CN3CCN(c4ccc(C(=O)Nc5ccc(OC)cc5)nn4)CC3)c(OC)c2)c1 [B1O079-01, 6-[4-[[4-(3-Ethoxyphenyl)-2-methoxyphenyl]methyl]piperazin-1-yl]-N-(4-methoxyphenyl)pyridazine-3-carboxamide]
- ASMS ratio (%) n = 1: 4.5%
- ASMS ratio (%) n = 2: 1.3%

SMILES: CCOc1cncc(-c2ccc(CN3CCN(c4ccc(C(=O)Nc5ccc(OC)cc5)nn4)CC3)c(OC)c2)c1 [B1O080-01, 6-[4-[[4-(5-Ethoxypyridin-3-yl)-2-methoxyphenyl]methyl]piperazin-1-yl]-N-(4-methoxyphenyl)pyridazine-3-carboxamide]
- ASMS ratio (%) n = 1: 1.4%
- ASMS ratio (%) n = 2: 3.4%

SMILES: CCOc1cccc(-c2cc(CN3CCN(c4ccc(C(=O)Nc5ccc(OC)cc5)nn4)CC3)cc(OCC)c2)c1 [B1O081-01, 6-[4-[[3-Ethoxy-5-(3-ethoxyphenyl)phenyl]methyl]piperazin-1-yl]-N-(4-methoxyphenyl)pyridazine-3-carboxamide]
- ASMS ratio (%) n = 1: 3.2%
- ASMS ratio (%) n = 2: −2.2%

SMILES: CCOc1cncc(-c2cc(CN3CCN(c4ccc(C(=O)Nc5ccc(OC)cc5)nn4)CC3)cc(OCC)c2)c1 [B1O082-01, 6-[4-[[3-Ethoxy-5-(5-ethoxypyridin-3-yl)phenyl]methyl]piperazin-1-yl]-N-(4-methoxyphenyl)pyridazine-3-carboxamide]
- ASMS ratio (%) n = 1: 1.5%
- ASMS ratio (%) n = 2: 2.6%
